According to patent US20250206714A1, “COMPOSITIONS AND METHODS FOR TREATMENT OF INFLAMMATORY DISEASES” (Invea Therapeutics, Inc., priority 2022, published 2025):

Assays:
[1] = test system: MDR1 transfected Madin-Darby canine kidney (MDCK) cell monolayer; test: Permeability assay (MDR1-MDCK); design: Papp A→B at 60 min / Papp B→A at 60 min / efflux ratio at 60 min / recovery at 60 min / % recovery Apical concentration-Basal concentration / % recovery Basal concentration-Apical concentration: dose or concentration left out as unconfirmed; settings: Permeability (MDR1-MDCK) @
Protocol: (§1) Digoxin is used as reference and lucifer yellow is used as the integrity marker. […] Papp, efflux ratio and percent recovery are calculated.

CYP 1A2 = biological target: T1, CYP 1A2 (Homo sapiens, UniProt P05177); test: Metabolic stability in human liver microsomes with CYP 1A2 inhibitor Furafylline; format: in vitro ADME; settings: 1 μM + Furafylline (20 μM)
T1 construct: The experiment was conducted in human liver microsomes; from tissue; host or cells: human liver microsomes
T1 sequence (P05177 1-516): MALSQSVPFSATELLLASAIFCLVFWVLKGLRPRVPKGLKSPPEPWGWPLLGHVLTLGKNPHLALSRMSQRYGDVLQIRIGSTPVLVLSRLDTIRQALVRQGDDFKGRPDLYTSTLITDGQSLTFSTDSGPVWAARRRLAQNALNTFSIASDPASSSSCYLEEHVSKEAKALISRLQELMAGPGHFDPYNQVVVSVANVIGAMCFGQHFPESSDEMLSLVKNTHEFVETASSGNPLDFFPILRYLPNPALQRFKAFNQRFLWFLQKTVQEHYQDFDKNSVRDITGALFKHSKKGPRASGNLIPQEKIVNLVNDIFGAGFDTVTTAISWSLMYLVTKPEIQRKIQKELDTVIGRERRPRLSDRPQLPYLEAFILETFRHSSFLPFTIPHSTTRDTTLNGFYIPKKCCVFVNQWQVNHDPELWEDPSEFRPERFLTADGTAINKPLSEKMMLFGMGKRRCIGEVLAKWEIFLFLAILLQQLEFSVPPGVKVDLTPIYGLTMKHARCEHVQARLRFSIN

MDR1 = test: in vitro; design: Papp A→B at 60 min / Papp B→A at 60 min / efflux ratio at 60 min / recovery at 60 min / % recovery Apical concentration-Basal concentration / % recovery Basal concentration-Apical concentration: dose or concentration left out as unconfirmed; settings: dog, MDCK-MDR1
Protocol: as §1

MDR1 (P-gp) = test: in vitro; design: Papp A→B at 60 min / Papp B→A at 60 min / efflux ratio at 60 min / recovery at 60 min / % recovery Apical concentration-Basal concentration / % recovery Basal concentration-Apical concentration: dose or concentration left out as unconfirmed; settings: dog; for efflux ratio at 60 min: MDCK-MDR1
Protocol: as §1

[2] = Metabolic stability assay in human liver microsomes in the presence of specific cytochrome P450 inhibitors (arm without inhibitor, summary statements); settings: for % rem @ 5 min / % rem @ 15 min / % rem @ 30 min / % rem @ 45 min: 1 μM, no inhibitor
CYP 2C9 = biological target: T2, CYP 2C9 (Homo sapiens, UniProt P11712); test: Metabolic stability in human liver microsomes with CYP 2C9 inhibitor Sulfaphenazole; format: in vitro ADME; settings: 1 μM + Sulfaphenazole (20 μM)
T2 construct: The experiment was conducted in human liver microsomes; from tissue; host or cells: human liver microsomes

CYP 3A4 = CYP 3A4 (Homo sapiens, UniProt P08684); test: Metabolic stability in human liver microsomes with CYP 3A4 inhibitor Ketoconazole; settings: 1 μM + Ketoconazole (20 μM)
CYP 2C19 = biological target: T3, CYP 2C19 (Homo sapiens, UniProt P33261); test: Metabolic stability in human liver microsomes with CYP 2C19 inhibitor Nootkatone; format: in vitro ADME; settings: 1 μM + Nootkatone (20 μM)
T3 construct: The experiment was conducted in human liver microsomes; from tissue; host or cells: human liver microsomes

IL-1β = test: LPS+ATP-induced model of inflammasome activation, plasma IL-1β by ELISA; format: in vivo, Balb/c mice; settings: 20 mg/kg, Intraperitoneal; mice plasma
Protocol: The procedures detailed here can be utilized for testing all compounds of the disclosure. The example utilizes LPS+ATP-induced model of inflammasome activation in 8-10 weeks old male Balb/c mice for in vivo testing.
8-10 weeks old male Balb/c mice were challenged by intraperitoneal (i.p.) injection of 200 μg/Kg (0.2 μg/g) LPS at t=0 hr, followed by i.p. injection of 5 mM solution of ATP at t=2 hr (2 h after LPS challenge). The compound of disclosure being tested for inhibitory activity (such as Compound 6) was administered both via intraperitoneal and oral route at −1 hr. Different doses of the compound of the disclosure were given to the mice […] as shown below.
MCC950, a specific small molecule inhibitor of NLRP3 inflammasome was used as a positive control to enable comparison of inhibitory activity of the compounds of the disclosure along with a known inhibitor. 2.5 hours after the LPS priming (or 0.5 hours after ATP administration), blood was collected via retro-orbital bleeding in heparinized blood collection tubes. Blood was centrifuged for 5 minutes at 10,000 rpm in a refrigerated centrifuge to obtain plasma. Separated plasma was used for cytokine assessment by ELISA. The standard curve (OD VS concentration) for IL-1β was also plotted and used to determine the IL-1β concentration for the OD values. The percentage of inhibition of IL-1β was calculated using the formula: […]

[3] = MDCK-MDR1, % recovery Apical concentration-Basal concentration
[4] = MDCK-MDR1, % recovery Basal concentration-Apical concentration
[5] = human, human liver microsomes, pH 7.4

CYP 3A4, sequence (P08684 whole entry): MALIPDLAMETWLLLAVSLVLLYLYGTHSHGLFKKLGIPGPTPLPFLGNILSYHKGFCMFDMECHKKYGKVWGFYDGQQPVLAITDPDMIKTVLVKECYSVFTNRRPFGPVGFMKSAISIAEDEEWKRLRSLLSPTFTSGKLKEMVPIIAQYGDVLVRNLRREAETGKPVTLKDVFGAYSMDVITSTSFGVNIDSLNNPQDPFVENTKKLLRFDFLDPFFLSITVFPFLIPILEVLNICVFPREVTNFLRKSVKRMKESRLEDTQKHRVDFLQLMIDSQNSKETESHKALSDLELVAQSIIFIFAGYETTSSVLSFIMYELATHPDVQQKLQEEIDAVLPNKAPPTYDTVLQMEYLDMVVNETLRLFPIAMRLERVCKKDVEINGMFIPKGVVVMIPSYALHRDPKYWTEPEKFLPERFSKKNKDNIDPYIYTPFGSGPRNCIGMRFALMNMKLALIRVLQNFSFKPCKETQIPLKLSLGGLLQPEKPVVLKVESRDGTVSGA
T3 sequence (P33261 whole entry): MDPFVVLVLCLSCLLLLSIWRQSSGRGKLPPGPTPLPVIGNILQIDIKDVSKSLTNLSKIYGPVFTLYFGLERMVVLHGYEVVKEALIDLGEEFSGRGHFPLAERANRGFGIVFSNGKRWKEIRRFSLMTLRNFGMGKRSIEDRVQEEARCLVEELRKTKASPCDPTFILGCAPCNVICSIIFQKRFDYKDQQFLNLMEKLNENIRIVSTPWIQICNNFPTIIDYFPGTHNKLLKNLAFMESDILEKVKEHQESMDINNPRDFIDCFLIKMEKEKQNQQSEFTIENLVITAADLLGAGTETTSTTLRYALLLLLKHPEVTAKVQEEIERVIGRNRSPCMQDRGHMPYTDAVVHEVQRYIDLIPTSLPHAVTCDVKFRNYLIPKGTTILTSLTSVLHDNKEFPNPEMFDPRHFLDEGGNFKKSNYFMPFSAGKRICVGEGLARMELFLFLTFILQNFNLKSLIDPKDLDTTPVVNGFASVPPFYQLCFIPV
T2 sequence (P11712 whole entry): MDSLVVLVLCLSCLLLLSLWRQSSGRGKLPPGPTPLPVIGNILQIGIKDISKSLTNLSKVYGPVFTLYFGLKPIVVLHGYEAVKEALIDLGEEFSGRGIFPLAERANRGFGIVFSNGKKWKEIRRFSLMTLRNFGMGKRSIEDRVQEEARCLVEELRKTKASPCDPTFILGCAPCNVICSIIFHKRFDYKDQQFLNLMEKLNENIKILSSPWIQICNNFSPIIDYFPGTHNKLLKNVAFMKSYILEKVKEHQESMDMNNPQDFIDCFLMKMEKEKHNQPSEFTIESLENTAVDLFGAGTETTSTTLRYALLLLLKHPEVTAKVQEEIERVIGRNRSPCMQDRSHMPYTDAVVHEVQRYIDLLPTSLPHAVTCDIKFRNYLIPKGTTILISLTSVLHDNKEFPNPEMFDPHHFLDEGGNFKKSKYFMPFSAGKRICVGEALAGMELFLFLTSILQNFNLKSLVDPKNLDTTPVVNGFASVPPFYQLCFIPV

## Lucifer yellow
[1]
  % recovery Apical concentration-Basal concentration: 97.2%
  % recovery Basal concentration-Apical concentration: 97.1%

## CCOc1ccc(NC(C)=O)cc1 [Phenacetin, reference compound]
CYP 1A2
  % rem @ 5 min: ~100%
  % rem @ 15 min: ~100%
  % rem @ 30 min: ~100%
  % rem @ 45 min: 71.9%
CYP 1A2; pH 7.4, with Furafylline 20 μM
  half-life at 1 µM: 102 min
CYP 1A2; pH 7.4, with Furafylline 20 μM, read-out: mCLint
  microsomal CLint at 1 μM: 13.6 µL/min/mg

## C[C@H]1O[C@@H](O[C@H]2[C@@H](O)C[C@H](O[C@H]3[C@@H](O)C[C@H](O[C@H]4CC[C@@]5(C)[C@H](CC[C@@H]6[C@@H]5C[C@@H](O)[C@]5(C)[C@@H](C7=CC(=O)OC7)CC[C@]65O)C4)O[C@@H]3C)O[C@@H]2C)C[C@H](O)[C@@H]1O [Digoxin]
MDR1
  Papp A→B at 60 min: 2.8 nm/s
  Papp B→A at 60 min: 152 nm/s
MDR1 (P-gp)
  efflux ratio at 60 min: 54.3
MDR1 (P-gp); [3]
  recovery at 60 min: 99.9%
MDR1 (P-gp); [4]
  recovery at 60 min: ~100%

## O=C(O)Cc1ccccc1Nc1c(Cl)cccc1Cl [Diclofenac, reference compound]
[2]; human liver microsomes
  % rem @ 5 min: 49.5%
  % rem @ 15 min: 28.3%
  % rem @ 30 min: 10.5%
  % rem @ 45 min: 4.93%
CYP 2C9
  % rem @ 5 min: ~100%
  % rem @ 15 min: ~100%
  % rem @ 30 min: 91.9%
  % rem @ 45 min: 82.0%
CYP 2C9; pH 7.4, with Sulfaphenazole 20 μM
  half-life at 1 µM: 131 min
CYP 2C9; pH 7.4, with Sulfaphenazole 20 μM, read-out: mCLint
  microsomal CLint at 1 μM: 10.6 µL/min/mg

## Cc1ncc2n1-c1ccc(Cl)cc1C(c1ccccc1F)=NC2 [Midazolam]
[2]; human liver microsomes
  % rem @ 5 min: 22.0%
  % rem @ 15 min: 2.77%
  % rem @ 30 min: <1%
  % rem @ 45 min: <1%
[2]; human, microsomes, pH 7.4
  half-life at 1 µM: 5.21 min
CYP 3A4
  % rem @ 5 min: 96.7%
  % rem @ 15 min: 97.1%
  % rem @ 30 min: ~100%
  % rem @ 45 min: ~100%

## COc1ccc2[nH]c([S+]([O-])Cc3ncc(C)c(OC)c3C)nc2c1 (centres unmarked) [Omeprazole, reference compound]
[2]; human liver microsomes
  % rem @ 5 min: 95.9%
  % rem @ 15 min: 71.1%
  % rem @ 30 min: 60.1%
  % rem @ 45 min: 28.8%
[2]; [5]
  half-life at 1 µM: 26.4 min
  microsomal CLint at 1 μM: 52.6 µL/min/mg
CYP 2C19
  % rem @ 5 min: 94.8%
  % rem @ 15 min: 92.7%
  % rem @ 30 min: 85.0%
  % rem @ 45 min: 55.6%
CYP 2C19; pH 7.4, with Nootkatone 20 μM
  half-life at 1 µM: 59.3 min
CYP 2C19; pH 7.4, with Nootkatone 20 μM, read-out: mCLint
  microsomal CLint at 1 μM: 23.4 µL/min/mg

## CC(C)(O)c1coc(S(=O)(=O)NC(=O)Nc2c3c(cc4c2CCC4)CCC3)c1 [MCC950, reference compound]
IL-1β
  % IL-1 β inhibition: 95%

## CC(C)NCC(O)COc1cccc2ccccc12 (centres unmarked) [Propranolol]
MDR1
  Papp A→B at 60 min: 475 nm/s
  Papp B→A at 60 min: 482 nm/s
MDR1 (P-gp)
  efflux ratio at 60 min: 1.01
MDR1 (P-gp); [3]
  recovery at 60 min: 71.5%
MDR1 (P-gp); [4]
  recovery at 60 min: ~100%
